Laboratory results taken from patent publication US7973059B2, “Potassium channel inhibitors” (Merck Sharp & Dohme Corp., priority 2005, dated 2011).

What follows are molecules tested against human Kv1.5 potassium channel alpha subunit (Homo sapiens, UniProt P22460) (assay: High throughput Kv1.5 planar patch clamp assay (Kv1.5 HT-clamp, IonWorks HT)). Conditions: not given.
Assay type: cell-based
Parameters: Kv1.5 HT-clamp % inhibition: dose or concentration left out as unconfirmed
Description: The high throughput Kv1.5 planar patch clamp assay is a systematic primary screen. It confirms activity and provides a functional measure of the potency of agents that specifically affect Kv1.5 potassium channels. Kiss et al. (Assay and Drug Dev. Tech., 1(1-2):127-135, 2003) and Schroeder et al. (J. of Biomol. Screen., 8(1); 50-64, 2003) describe the use of this instrument for Kv1.5 as well as other voltage gated ion channels.
Chinese hamster ovary cells (CHO) stably expressing the human Kv1.5 potassium channel alpha subunit, cloned from human heart, are grown to 90-100% confluence in Ham's F12 medium supplemented with 10% FBS, 100 U/ml penicillin, 100 μg/ml streptomycin, 1000 μg/ml G-418 sulfate. Cells are subcultured by treatment with Versene, then suspended in phosphate-buffered saline (PBS) and centrifuged The cell pellet is re-suspended in PBS and the resulting suspension placed in the cell reservoir of the IonWorks™ HT instrument.
Electrophysiological recordings are performed with intracellular solution containing (mM): K-gluconate 100, KCl 40, MgCl2 3.2, EGTA 3, N-2-hydroxylethylpiperazine-N^1-2-ethanesulphonic acid (HEPES) 5, adjusted to pH 7.3. Amphotericin (Sigma) is prepared as 30 mg/ml stock solution and diluted to a final working concentration of 0.1 mg/ml in internal buffer solution. The external solution is Dulbecco's PBS (Invitrogen) and contains (mM): CaCl2 0.90, KCl 2.67, K3PO4 1.47, MgCl2 0.50, NaCl 138, Na3PO4 8.10 and has a pH of 7.4. All compounds are prepared as 10 mM stock solutions in DMSO. Compounds are diluted into external buffer, then transferred from the drug plate to the Patchplate during the experiment (final DMSO concentration <0.66% vol.).
Kv1.5 ionic currents are recorded at room temperature. Membrane currents are amplified (RMS ˜10 pA) and sampled at 10 kHz. Leak subtraction was performed in all experiments by applying a 160 ms hyperpolarizing (10 mV) pre-pulses 200 ms before the test pulses to measure leak conductance. The patch clamp stimulus protocol is as follows: • 1. Patchplate wells are loaded with 3.5 μL of external buffer. • 2. Planar micropipette hole resistances (Rp) is determined by applying a 10 mV, 160 ms potential difference across each hole (Hole test). • 3. Cells are pipetted into the Patchplate and form high resistance seals with the 1-2 μm holes at the bottom of each Patchplate well. A seal test scan is performed to determine how many of the Patchplate wells have cells that have formed seals. • 4. In order to gain electrical access to the cells, intracellular solution containing amphotericin is circulated for 4 minutes on the bottom side of the Patchplate. • 5. Pre-compound addition test pulse is applied to each well on the Patchplate. Protocol: Cells are voltage clamped at a membrane holding potential of −80 mV for 15 seconds. This is followed by application of a 5 Hz stimulus train (27×150 ms depolarizations to +40 mV). The membrane potential steps to +40 mV evoke outward (positive) ionic currents. • 6. Compound is added to each well of the Patchplate. Compounds are allowed to incubate for 5 minutes. • 7. Post-compound addition test pulse protocol is applied. Protocol: Cells are voltage clamped at a membrane holding potential of −80 mV for 15 seconds. This is followed by application of a 5 Hz stimulus train (27×150 ms depolarizations to +40 mV).
Data analysis is conducted off-line. Paired comparisons between pre-drug and post-drug additions are used to determine the inhibitory effect of each compound. % inhibition of the peak control current during the 27th depolarization to +40 mV (in the 5 Hz train) is plotted as a function of antagonist concentration. The concentrations of drug required to inhibit current by 50% (IC50) are determined by fitting of the Hill equation to the concentration response data: % of Control=100×(1+([Drug]/IC50)^p)^−1 […]

Sequence of human Kv1.5 potassium channel alpha subunit (P22460 whole entry): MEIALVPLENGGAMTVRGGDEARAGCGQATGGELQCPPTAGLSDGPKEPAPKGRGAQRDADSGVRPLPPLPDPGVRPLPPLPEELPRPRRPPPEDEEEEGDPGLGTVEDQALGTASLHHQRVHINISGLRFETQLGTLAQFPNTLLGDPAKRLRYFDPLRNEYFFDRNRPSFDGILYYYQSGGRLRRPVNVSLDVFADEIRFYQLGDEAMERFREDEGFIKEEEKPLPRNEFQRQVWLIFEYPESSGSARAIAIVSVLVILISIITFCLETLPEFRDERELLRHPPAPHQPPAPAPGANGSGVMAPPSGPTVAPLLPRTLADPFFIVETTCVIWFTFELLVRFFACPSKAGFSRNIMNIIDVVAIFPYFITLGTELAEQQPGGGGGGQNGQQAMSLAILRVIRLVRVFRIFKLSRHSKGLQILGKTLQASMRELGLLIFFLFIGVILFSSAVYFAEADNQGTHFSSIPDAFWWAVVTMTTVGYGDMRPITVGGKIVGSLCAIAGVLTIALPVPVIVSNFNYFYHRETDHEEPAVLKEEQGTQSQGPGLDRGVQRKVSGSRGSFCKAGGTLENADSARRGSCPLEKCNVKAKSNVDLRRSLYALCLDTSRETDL

Kv1.5 HT-clamp % inhibition	SMILES
72%	OC(c1cccnc1-c1cc(Cl)cc(Cl)c1)C(c1cccnc1)c1cccnc1F (single isomer, unassigned) [Example 3 Isomer 1, Enantiomer B, 1-[2-(3,5-dichlorophenyl)pyridin-3-yl]-2-(2-fluoropyridin-3-yl)-2-pyridin-3-ylethanol]

Same assay, conditions: CHO cells stably expressing human Kv1.5; 27th depolarization to +40 mV in 5 Hz train

IC50	SMILES
116 nM	OC(c1cccnc1-c1cc(Cl)cc(Cl)c1)C(c1cccnc1)c1cccnc1 (racemic) [Example 1 Racemic, racemic 1-[2-(3,5-dichlorophenyl)pyridin-3-yl]-2,2-dipyridin-3-ylethanol]
96 nM	OC(c1cccnc1-c1cc(Cl)cc(Cl)c1)C(c1cccnc1)c1cccnc1F (single isomer, unassigned) [Example 3 Isomer 1, Enantiomer A, 1-[2-(3,5-dichlorophenyl)pyridin-3-yl]-2-(2-fluoropyridin-3-yl)-2-pyridin-3-ylethanol]
154 nM	OC(c1cccnc1-c1cc(Cl)cc(Cl)c1)C(c1cccnc1)c1cccnc1F (single isomer, unassigned) [Example 3 Isomer 2, Enantiomer A, 1-[2-(3,5-dichlorophenyl)pyridin-3-yl]-2-(2-fluoropyridin-3-yl)-2-pyridin-3-ylethanol]
75 nM	OC(c1cccnc1-c1cc(Cl)ccc1Cl)C(c1cccnc1)c1cccnc1 (single isomer, unassigned) [Example 5 Enantiomer B, 1-[2-(2,5-dichlorophenyl)pyridin-3-yl]-2,2-dipyridin-3-ylethanol]
90 nM	O[C@@H](c1cccnc1-c1cc(Cl)cc(Cl)c1)C(c1cccnc1)c1cccnc1 [(R)-1-[2-(3,5-dichlorophenyl)pyridin-3-yl]-2,2-dipyridin-3-ylethanol]
2920 nM	O[C@H](c1cccnc1-c1cc(Cl)cc(Cl)c1)C(c1cccnc1)c1cccnc1 [(S)-1-[2-(3,5-dichlorophenyl)pyridin-3-yl]-2,2-dipyridin-3-ylethanol]

The remaining lines, values behind:

SMILES	IC50
OC(c1cccnc1-c1cccc(C(F)(F)F)c1)C(c1cccnc1)c1cccnc1 (racemic) [Example 2 Racemic, racemic 2,2-dipyridin-3-yl-1-{2-[3-(trifluoromethyl)-phenyl]pyridin-3-yl}ethanol]	266 nM
OC(c1cccnc1-c1ccccc1Cl)C(c1cccnc1)c1cccnc1 (racemic) [Example 4 Racemic, racemic 1-[2-(2-chlorophenyl)pyridin-3-yl]-2,2-dipyridin-3-ylethanol]	422 nM
OC(c1cccnc1-c1cc(Cl)ccc1Cl)C(c1cccnc1)c1cccnc1 (racemic) [Example 5 Racemic, racemic 1-[2-(2,5-dichlorophenyl)pyridin-3-yl]-2,2-dipyridin-3-ylethanol]	77 nM
OC(c1cccnc1-c1cccc(Cl)c1Cl)C(c1cccnc1)c1cccnc1 (racemic) [Example 6 Racemic, racemic 1-[2-(2,3-dichlorophenyl)pyridin-3-yl]-2,2-dipyridin-3-ylethanol]	110 nM
OC(c1cccnc1-c1cccc(C(F)(F)F)c1)C(c1cccnc1)c1cccnc1 (single isomer, unassigned) [Example 2 Enantiomer A, 2,2-dipyridin-3-yl-1-{2-[3-(trifluoromethyl)phenyl]pyridin-3-yl}ethanol]	290 nM
OC(c1cccnc1-c1cccc(C(F)(F)F)c1)C(c1cccnc1)c1cccnc1 (single isomer, unassigned) [Example 2 Enantiomer B, 2,2-dipyridin-3-yl-1-{2-[3-(trifluoromethyl)phenyl]pyridin-3-yl}ethanol]	8220 nM
OC(c1cccnc1-c1ccccc1Cl)C(c1cccnc1)c1cccnc1 (single isomer, unassigned) [Example 4 Enantiomer A, 1-[2-(2-chlorophenyl)pyridin-3-yl]-2,2-dipyridin-3-ylethanol]	171 nM
OC(c1cccnc1-c1ccccc1Cl)C(c1cccnc1)c1cccnc1 (single isomer, unassigned) [Example 4 Enantiomer B, 1-[2-(2-chlorophenyl)pyridin-3-yl]-2,2-dipyridin-3-ylethanol]	25000 nM
OC(c1cccnc1-c1cc(Cl)ccc1Cl)C(c1cccnc1)c1cccnc1 (single isomer, unassigned) [Example 5 Enantiomer A, 1-[2-(2,5-dichlorophenyl)pyridin-3-yl]-2,2-dipyridin-3-ylethanol]	3200 nM
OC(c1cccnc1-c1cccc(Cl)c1Cl)C(c1cccnc1)c1cccnc1 (single isomer, unassigned) [Example 6 Enantiomer A, 1-[2-(2,3-dichlorophenyl)pyridin-3-yl]-2,2-dipyridin-3-ylethanol]	5210 nM
OC(c1cccnc1-c1cccc(Cl)c1Cl)C(c1cccnc1)c1cccnc1 (single isomer, unassigned) [Example 6 Enantiomer B, 1-[2-(2,3-dichlorophenyl)pyridin-3-yl]-2,2-dipyridin-3-ylethanol]	236 nM

Same assay, conditions: at 10000 nM

inhibition at 10 µM	SMILES
89%	OC(c1cccnc1-c1cc(Cl)cc(Cl)c1)C(c1cccnc1)c1cccnc1F (single isomer, unassigned) [Example 3 Isomer 2, Enantiomer B, 1-[2-(3,5-dichlorophenyl)pyridin-3-yl]-2-(2-fluoropyridin-3-yl)-2-pyridin-3-ylethanol]
